{
  "source": "PubChem BioAssay AID588780",
  "about": "(Sanford-Burnham Center for Chemical Genomics, 2011)",
  "note": "Calls of active or inactive are those of the source.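 Rule for the calls: active = compounds whose fitted half-maximal concentration in the cell-protection dose series is at or below a set limit; inactive = the rest.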",
  "data": [
    {"system": "H9c2 cardiomyocytes, 2-deoxyglucose stress, ATP luminescence, 2 h", "assay": "protection of cardiomyocytes from 2-deoxyglucose injury, dose response, cell-based, 2-deoxyglucose stress, uHTS hits (AID 588780)", "values": [
      {"smiles": "O=c1[nH]c2cccc(F)c2n2cccc12", "IC50": "8.05 µM"},
      {"smiles": "O=C(CCc1nc2ccccc2c(=O)[nH]1)OCCOc1ccc(Cl)cc1", "IC50": "31.3 µM (inactive)"},
      {"smiles": "O=C(COc1ccc(F)cc1Cl)Nc1nc(-c2ccccn2)cs1", "IC50": "> 79 µM (inactive)"},
      {"smiles": "Cc1cccc(NC(=O)c2nc[nH]c2C(=O)NCCCCCCNC(=O)c2[nH]cnc2C(=O)Nc2cccc(C)c2)c1", "IC50": "> 79 µM (inactive)"},
      {"smiles": "COc1ccc(C=CC(=O)c2ccc3cc(OC)c(OC)cc3c2)cc1OC", "IC50": "> 79 µM (inactive)"},
      {"smiles": "O=C(Nc1nc(-c2ccccn2)cs1)c1cccc(S(=O)(=O)N2CCOCC2)c1", "IC50": "41.5 µM (inactive)"},
      {"smiles": "O=C(CSc1nnc(-c2ccccc2)n1Cc1ccccc1)NNC(=O)c1ccccc1O", "IC50": "> 79 µM (inactive)"},
      {"smiles": "CCC(=O)Oc1cccc(C(=O)Nc2ccc(-c3nnc(-c4ccco4)o3)cc2)c1", "IC50": "> 79 µM (inactive)"},
      {"smiles": "CC(C)(C)OC(=O)NCc1ccc(NC(=O)c2nc[nH]c2C(=O)NCCCCCCNC(=O)c2[nH]cnc2C(=O)Nc2ccc(CNC(=O)OC(C)(C)C)cc2)cc1", "IC50": "> 79 µM (inactive)"},
      {"smiles": "Cc1ccc(N=Cc2cc(Cl)cc(Cl)c2O)nc1", "IC50": "> 79 µM (inactive)"},
      {"smiles": "CC(C)(C)OC(=O)C[C@@H]1C/C=C\\C[C@@H](CC(=O)N[C@H](CO)Cc2ccccc2)C(=O)NC[C@@H](c2ccccc2)OC1=O", "IC50": "> 79 µM (inactive)"},
      {"smiles": "O=C(COC(=O)Cn1[nH]c(=O)c2ccccc2c1=O)NNC(=O)c1ccccc1", "IC50": "> 79 µM (inactive)"},
      {"smiles": "CS/C(=N\\S(=O)(=O)c1ccccc1)c1ccccc1", "IC50": "41.3 µM (inactive)"},
      {"smiles": "COc1ccc2[nH]c(=O)c(CN(Cc3nnnn3Cc3ccccc3)CC3CCCO3)cc2c1", "note": "(configuration not stated)", "IC50": "> 79 µM (inactive)"},
      {"smiles": "CCOc1cccc(-c2nn3c(-c4ccccn4)nnc3s2)c1", "IC50": "> 79 µM (inactive)"},
      {"smiles": "c1coc(-c2nnc3sc(-c4cccs4)nn23)c1", "IC50": "> 79 µM (inactive)"},
      {"smiles": "CC(=O)Nc1ccc(S(=O)(=O)N(Cc2ccco2)Cc2cc3ccccc3[nH]c2=O)cc1", "IC50": "> 79 µM (inactive)"},
      {"smiles": "c1ccc(-c2oc3ncnc(NCCN4CCOCC4)c3c2-c2ccccc2)cc1", "IC50": "23.2 µM"},
      {"smiles": "O=C(COC(=O)Cc1n[nH]c(=O)c2ccccc12)Nc1c(Br)cc([N+](=O)[O-])cc1Br", "IC50": "> 79 µM (inactive)"},
      {"smiles": "COc1cc(OC)cc(C(=O)Nc2ccc(C(=O)Nc3ccccc3OC)cc2)c1", "IC50": "15.9 µM"},
      {"smiles": "CCCn1nc(C(=O)Nc2nc(-c3ccccn3)cs2)c2ccccc2c1=O", "IC50": "> 79 µM (inactive)"},
      {"smiles": "CC(C)(C)OC(=O)N1CCC(NC(=O)c2nc[nH]c2C(=O)NCC(=O)OCc2ccccc2)CC1", "IC50": "> 79 µM (inactive)"},
      {"smiles": "O=C(COC(=O)c1c2c(nc3ccccc13)/C(=C/c1cccc([N+](=O)[O-])c1)CCC2)NC1CCS(=O)(=O)C1", "note": "(configuration not stated)", "IC50": "13.4 µM"},
      {"smiles": "COc1cc(/C=N/NC(=O)NC23CC4CC(CC(C4)C2)C3)ccc1OCC(N)=O", "IC50": "> 79 µM (inactive)"},
      {"smiles": "COc1cccc(-c2nn3c(-c4ccco4)nnc3s2)c1", "IC50": "> 79 µM (inactive)"},
      {"smiles": "CCn1nc(C(=O)Nc2nc(-c3ccccn3)cs2)c2ccccc2c1=O", "IC50": "> 79 µM (inactive)"},
      {"smiles": "COc1ccnc(Oc2ccc(F)cc2)c1C(=O)N/C=N/OCc1ccc(Cl)cc1Cl", "IC50": "12.3 µM"},
      {"smiles": "Cc1sc2nc(SCC(=O)N(C)C)[nH]c(=O)c2c1C", "IC50": "> 79 µM (inactive)"},
      {"smiles": "COc1cccc(CN(C)C(=O)C(Cc2ccccc2)NC(=O)c2ccccc2)c1OC", "note": "(configuration not stated)", "IC50": "20.8 µM"},
      {"smiles": "COc1ccc(-c2csc(NC(=O)c3cccc(N4C(=O)CCC4=O)c3)n2)cc1OC", "IC50": "10.6 µM"},
      {"smiles": "Cc1cc(C(=O)N/N=C/c2cc(Br)ccc2OC(=O)c2ccccc2Cl)n[nH]1", "IC50": "> 79 µM (inactive)"},
      {"smiles": "CCOC(=O)c1ccc(-c2ccc(C3Nc4ccccc4C(=O)N3O)o2)cc1", "note": "(configuration not stated)", "IC50": "20.4 µM"},
      {"smiles": "CCOC(=O)N1CCC(n2c(SCC(=O)N3CCC(C)CC3)nc3ccccc3c2=O)CC1", "IC50": "> 79 µM (inactive)"},
      {"smiles": "Cc1cc(C)c(C)c(S(=O)(=O)N2CCC(C(=O)NNC(=O)c3ccccc3O)CC2)c1C", "IC50": "> 79 µM (inactive)"},
      {"smiles": "COc1cccc(NC(=O)NC2(C(F)(F)F)Oc3ccccc3O2)c1", "IC50": "16.9 µM"},
      {"smiles": "Cc1ccc(NCc2ccc(O)c3ncccc23)cc1C", "IC50": "> 79 µM (inactive)"},
      {"smiles": "CC(=O)Nc1cccc(NC(=O)CSc2ccc(-c3ccccn3)nn2)c1", "IC50": "> 79 µM (inactive)"},
      {"smiles": "COc1cc(/C=C(\\C#N)c2nc3ccc(C)cc3[nH]2)c([N+](=O)[O-])cc1OC", "IC50": "18 µM"},
      {"smiles": "COc1cc(-n2c(=O)c3ccccc3n(Cc3cc(=O)n4ccccc4n3)c2=O)cc(OC)c1OC", "IC50": "> 79 µM (inactive)"},
      {"smiles": "O=C(N/N=C/c1ccccn1)c1cccc([N+](=O)[O-])c1", "IC50": "> 79 µM (inactive)"},
      {"smiles": "N#C/C(=C\\c1ccc(-c2cccc([N+](=O)[O-])c2)o1)C(=O)NCCN1CCOCC1", "IC50": "> 79 µM (inactive)"},
      {"smiles": "Cc1cc(C(=O)N/N=C/c2c(CO)cnc(C)c2O)c2ccccc2n1", "IC50": "> 79 µM (inactive)"},
      {"smiles": "O=C(CCc1nc2ccccc2c(=O)[nH]1)NNC(=O)COc1cccc(F)c1", "IC50": "> 79 µM (inactive)"},
      {"smiles": "O=C(COC(=O)Cn1[nH]c(=O)c2ccccc2c1=O)NNC(=O)c1ccc(Br)cc1", "IC50": "> 79 µM (inactive)"},
      {"smiles": "COc1ccccc1NC(=O)CSc1ccc2nnc(-c3ccc(C)cc3)n2n1", "IC50": "> 79 µM (inactive)"},
      {"smiles": "C=CCn1cnc2c(c1=O)c1nc3ccccc3nc1n2/N=C/c1cc(OC)c(OC)c(OC)c1", "IC50": "> 79 µM (inactive)"},
      {"smiles": "CC(=O)CCc1ccc(Oc2nc(-c3cccnc3)nc3ccccc23)cc1", "IC50": "> 79 µM (inactive)"},
      {"smiles": "O=c1[nH]nc(CNc2ccc(C(F)(F)F)cc2)c2ccccc12", "IC50": "15.1 µM"},
      {"smiles": "O=C1OCCN1C(=O)[C@H]1[C@H](c2ccc([N+](=O)[O-])cc2)C(c2cccc(Cl)c2)=NN1c1ccc(Br)cc1", "IC50": "> 79 µM (inactive)"},
      {"smiles": "CCOc1cccc(Nc2cc3n(c(=O)n2)CCc2cc(OC)c(OC)cc2-3)c1", "IC50": "29.9 µM"},
      {"smiles": "O=C(O)c1nn(CC(=O)N2CCN(c3ccccc3)CC2)c(=O)c2ccccc12", "IC50": "> 79 µM (inactive)"},
      {"smiles": "O=c1[nH]c2cc(O)ccc2c2ccccc12", "IC50": "> 79 µM (inactive)"},
      {"smiles": "COc1cccc(Nc2nc(-c3sc(NC(=O)c4ccco4)nc3C)cs2)c1", "IC50": "> 79 µM (inactive)"},
      {"smiles": "CCCCCn1nc(C(=O)OCC(=O)c2c(N)n(C)c(=O)n(C)c2=O)c2ccccc2c1=O", "IC50": "20.1 µM"},
      {"smiles": "O=c1[nH]ccc2c(O)cccc12", "IC50": "> 79 µM (inactive)"},
      {"smiles": "O=C(c1ccccc1)c1ccc2nc(N3CCN(C(=O)c4ccco4)CC3)c3nncn3c2c1", "IC50": "14.9 µM"},
      {"smiles": "Cc1ccccc1N(C(=O)c1snc(C(N)=O)c1N)C(C(=O)NCc1ccccc1)c1ccc(O)cc1", "note": "(configuration not stated)", "IC50": "17.8 µM"},
      {"smiles": "COc1ccc(-c2nnc(NC(=O)c3ccc(F)cc3)o2)cc1", "IC50": "> 79 µM (inactive)"},
      {"smiles": "CCN(CC(=O)Nc1ccc(OC)cc1)C(=O)c1cc(-c2cccs2)nn1-c1ccccc1", "IC50": "9.06 µM"},
      {"smiles": "O=C(Cn1[nH]c(=O)c2ccccc2c1=O)OCC(=O)N1CCc2ccccc2C1", "IC50": "> 79 µM (inactive)"},
      {"smiles": "CC(=O)OCc1nc2sc(C)c(C)c2c(=O)[nH]1", "IC50": "> 79 µM (inactive)"},
      {"smiles": "CCOC(=O)C1CCN(c2cc3c(cc2NC(=O)c2ccc(OC)c(OC)c2)n(C)c(=O)n3C)CC1", "IC50": "> 79 µM (inactive)"},
      {"smiles": "CCOc1ccc(NC(=O)c2cc3c(=O)n(C)c4ccccc4c3n2C)cc1", "IC50": "11.5 µM"},
      {"smiles": "COc1ccc(-c2nnc(-c3cc(OC)c(OC)c(OC)c3)o2)cc1OC", "IC50": "14.6 µM"},
      {"smiles": "COc1cc(C(=O)N/N=C/c2ccc(OC(=O)c3cccc(C)c3)c(OC)c2)ccc1O", "IC50": "> 79 µM (inactive)"},
      {"smiles": "OC1CCN(c2c3c(nc4cc(-c5cccc(F)c5)nn24)CCCC3)CC1", "IC50": "23.6 µM"},
      {"smiles": "O=C(Nc1cccc(-c2nc3cccnc3s2)c1)c1ccco1", "IC50": "> 79 µM (inactive)"}
    ]}
  ]
}
